# US20170210723A1, “MOLECULES HAVING PESTICIDAL UTILITY, AND INTERMEDIATES, COMPOSITIONS, AND PROCESSES, RELATED THERETO” (priority 2016, published 2017)
# How the values were obtained:
# Assay type in all cases: in vivo
# [1] = test system: Yellow Fever Mosquito (Aedes aegypti); assay: Bioassays on Yellow Fever Mosquito larvae, 96-well plate; details: from 4000 ppm DMSO master plate, about 1 day-old larvae, 3 days
# Description: Master plates containing 400 μg of a molecule dissolved in 100 μL of dimethyl sulfoxide (DMSO) (equivalent to a 4000 ppm solution) are used. A master plate of assembled molecules contains 15 μL per well. To this plate, 135 μL of a 90:10 water:acetone mixture is added to each well. A robot (Biomek® NXP Laboratory Automation Workstation) is programmed to dispense 15 μL aspirations from the master plate into an empty 96-well shallow plate (“daughter” plate). There are 6 reps (“daughter” plates) created per master. The created daughter plates are then immediately infested with YFM larvae.
# The day before plates are to be treated, mosquito eggs are placed in Millipore water containing liver powder to begin hatching (4 g. into 400 mL). After the daughter plates are created using the robot, they are infested with 220 μL of the liver powder/larval mosquito mixture (about 1 day-old larvae). After plates are infested with mosquito larvae, a non-evaporative lid is used to cover the plate to reduce drying. Plates are held at room temperature for 3 days prior to grading. After 3 days, each well is observed and scored based on mortality. The results are indicated in the table entitled “Table ABC: Biological Results” (See Table Section). AGRICULTURALLY ACCEPTABLE ACID ADDITION SALTS, SALT DERIVATIVES, SOLVATES, ESTER DERIVATIVES, POLYMORPHS, ISOTOPES, AND RADIONUCLIDES
# [2] = test system: Cabbage Looper (Trichoplusia ni); assay: Bioassays on CL, 128-well diet tray assay; details: Trichoplusia ni, 168 h; 50 μg/cm^2 on artificial diet, second instar larvae, five to seven days; read-out: CL % Control (or Mortality) rating
# Outline: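 Test molecule at 50 μg/cm^2 applied to the artificial diet surface (acetone-water) and dried; one to five second-instar T. ni larvae per well, eight wells per treatment, held at 25° C., 14:10 light-dark for five to seven days. Percent mortality averaged over wells.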
# [3] = test system: Beet Armyworm (Spodoptera exigua); assay: Bioassays on BAW, 128-well diet tray assay; details: Spodoptera exigua, 168 h; 50 μg/cm^2 on artificial diet, second instar larvae, five to seven days; read-out: BAW % Control (or Mortality) rating
SMILES,YFM % Control (or Mortality) rating [1],mortality at 50 µg/cm2 [2],mortality at 50 µg/cm2 [3]
"Cc1cc(/C=C/C(c2cc(Cl)c(Cl)c(Cl)c2)C(F)(F)F)ccc1C(=O)N[C@H](C)CSCC(F)(F)F (stereo partly drawn) [F51, 2-Methyl-4-((E)-4,4,4-trifluoro-3-(3,4,5-trichlorophenyl)but-1-en-1-yl)-N—((R)-1-((2,2,2-trifluoroethyl)thio)propan-2-yl)benzamide]",A (80-100),50 to 100%,50 to 100%
"CC(C)(CSCC(F)(F)F)NC(=O)c1ccc(/C=C/C(c2cc(Cl)c(Cl)c(Cl)c2)C(F)(F)F)cc1C(F)(F)F (stereo not drawn) [F44, (E)-N-(2-methyl-1-((2,2,2-trifluoroethyl)thio)propan-2-yl)-4-(4,4,4-trifluoro-3-(3,4,5-trichlorophenyl)but-1-en-1-yl)-2-(trifluoromethyl)benzamide]",A (80-100),50 to 100%,50 to 100%
"O=C(NCC[S+]([O-])CC(F)(F)F)c1ccc(/C=C/C(c2cc(Cl)c(Cl)c(Cl)c2)C(F)(F)F)cc1Br (stereo not drawn) [F3, (E)-2-bromo-4-(4,4,4-trifluoro-3-(3,4,5-trichlorophenyl)but-1-en-1-yl)-N-(2-((2,2,2-trifluoroethyl)sulfinyl)ethyl)benzamide]",B (More than 0-Less than 80),50 to 100%,50 to 100%
"CC[C@H](CSCC(F)(F)F)NC(=O)c1ccc(/C=C/C(c2cc(Cl)c(Cl)c(Cl)c2)C(F)(F)F)cc1C(F)(F)F (stereo partly drawn) [F12, 4-((E)-4,4,4-Trifluoro-3-(3,4,5-trichlorophenyl)but-1-en-1-yl)-N—((R)-1-((2,2,2-trifluoroethyl)thio)butan-2-yl)-2-(trifluoromethyl)benzamide]",A (80-100),50 to 100%,50 to 100%
"C[C@H](C[S+]([O-])CC(F)(F)F)NC(=O)c1ccc(/C=C/C(c2cc(Cl)cc(Cl)c2)C(F)(F)F)cc1C(F)(F)F (stereo partly drawn) [F90, 4-((E)-3-(3,5-Dichlorophenyl)-4,4,4-trifluorobut-1-en-1-yl)-N-((2R)-1-((2,2,2-trifluoroethyl)sulfinyl)propan-2-yl)-2-(trifluoromethyl)benzamide]",A (80-100),50 to 100%,50 to 100%
"Cc1cc(/C=C/C(c2cc(Cl)cc(Cl)c2)C(F)(F)F)ccc1C(=O)N[C@H](C)CS(=O)(=O)CC(F)(F)F (stereo partly drawn) [F92, 4-((E)-3-(3,5-Dichlorophenyl)-4,4,4-trifluorobut-1-en-1-yl)-2-methyl-N—((R)-1-((2,2,2-trifluoroethyl)sulfonyl)propan-2-yl)benzamide]",A (80-100),50 to 100%,50 to 100%
"CCCSC[C@@H](C)NC(=O)c1ccc(/C=C/C(c2cc(Cl)c(Cl)c(Cl)c2)C(F)(F)F)cc1C(F)(F)F (stereo partly drawn) [F70, N—((R)-1-(Propylthio)propan-2-yl)-4-((E)-4,4,4-trifluoro-3-(3,4,5-trichlorophenyl)but-1-en-1-yl)-2-(trifluoromethyl)benzamide]",A (80-100),50 to 100%,50 to 100%
"C[C@H](CCS(=O)(=O)CC(F)(F)F)NC(=O)c1ccc(/C=C/C(c2cc(Cl)c(Cl)c(Cl)c2)C(F)(F)F)cc1C(F)(F)F (stereo partly drawn) [F106, 4-((E)-4,4,4-Trifluoro-3-(3,4,5-trichlorophenyl)but-1-en-1-yl)-N—((R)-4-((2,2,2-trifluoroethyl)sulfonyl)butan-2-yl)-2-(trifluoromethyl)benzamide]",A (80-100),50 to 100%,50 to 100%
"CC[C@H](CS(=O)(=O)CCC(F)(F)F)NC(=O)c1ccc(/C=C/C(c2cc(Cl)c(Cl)c(Cl)c2)C(F)(F)F)cc1C(F)(F)F (stereo partly drawn) [F21, 4-((E)-4,4,4-Trifluoro-3-(3,4,5-trichlorophenyl)but-1-en-1-yl)-2-(trifluoromethyl)-N—((R)-1-((3,3,3-trifluoropropyl)sulfonyl)butan-2-yl)benzamide]",A (80-100),50 to 100%,50 to 100%
